Results taken from the NIST ThermoML archive (doi:10.1016/j.jct.2006.09.016).
± gives the expanded uncertainty stated by the source.

Test: molar heat capacity at constant pressure
Conditions: 101.33 kPa, Crystal

ON=Cc1ccccn1 [2-pyridinealdoxime]
Conditions	molar heat capacity at constant pressure [J/K/mol]
227.37 K	118.7 ± 1.3
230.3 K	120 ± 1.3
233.32 K	121.77 ± 1.3
236.35 K	123.52 ± 1.3
239.26 K	124.25 ± 1.3
242.25 K	125.83 ± 1.3
245.32 K	127.09 ± 1.3
248.39 K	128.4 ± 1.3
251.44 K	129.85 ± 1.3
254.47 K	130.36 ± 1.3
257.5 K	131.52 ± 1.3
260.5 K	132.74 ± 1.3
263.49 K	134.49 ± 1.3
266.46 K	136.14 ± 1.3
269.41 K	137.72 ± 1.4
272.35 K	139.5 ± 1.4
275.26 K	140.58 ± 1.4
278.17 K	142.55 ± 1.4
281.06 K	143.7 ± 1.4
284.01 K	145.45 ± 1.4
287.04 K	147.06 ± 1.4
290.04 K	148.68 ± 1.4
293.01 K	149.59 ± 1.4
295.98 K	150.99 ± 1.4
298.93 K	152.1 ± 1.4
301.87 K	153.86 ± 1.4
304.78 K	154.72 ± 1.4
307.69 K	155.91 ± 1.4
310.57 K	157.91 ± 1.4
313.44 K	159.33 ± 1.4
316.29 K	160.28 ± 1.4
319.11 K	161.83 ± 1.4
321.92 K	163.28 ± 1.5
324.8 K	164.64 ± 1.5
327.74 K	165.88 ± 1.5
330.66 K	167.18 ± 1.5
333.57 K	168.11 ± 1.5
336.45 K	169.62 ± 1.5
339.31 K	171.01 ± 1.5
342.16 K	172.57 ± 1.5
344.98 K	173.51 ± 1.5
347.78 K	174.14 ± 1.5
350.55 K	175.82 ± 1.5
353.29 K	176.47 ± 1.5
355.96 K	177.08 ± 1.5
358.4 K	178.59 ± 1.5
360.61 K	179.15 ± 1.5
363.31 K	180.38 ± 1.5
365.84 K	181.56 ± 1.5
367.88 K	182.97 ± 1.5
370.49 K	183.67 ± 1.5
372.97 K	184.42 ± 1.5
